Experimental data reported in patent US7659245B2, “Macrocylic inhibitors of hepatitis C virus” (Tibotec Pharmaceuticals Ltd, priority 2005, dated 2010).
Read-outs that look alike come from different tables or passages of the source.

How the values were obtained:
[1] = rcm bond, DCE
[2] = rcm bond, 14-membered ring, Hoveyda-Grubbs II, DCE
[3] = system: HCV replicons (Huh-7 luc/neo cells, NS3-NS5B regions of HCV type 1b); experiment: Replicon assay: inhibition of HCV RNA replication in Huh-Luc cells (luciferase read-out); assay type: cell-based; conditions: Hepatitis C virus, Huh-7, 72 h, HCV type 1b replicon, luciferase activity after three days
Protocol: The in vitro antiviral activity against HCV of the compounds of formula (I) was tested in a cellular HCV replicon system based on Lohmann et al. (1999) Science 285:110-113, with the further modifications described by Krieger et al. (2001) Journal of Virology 75: 4614-4624 (incorporated herein by reference), which is further exemplified in the examples section. This model, while not a complete infection model for HCV, is widely accepted as the most robust and efficient model of autonomous HCV RNA replication currently available. […] It will be appreciated that it is important to distinguish between compounds that specifically interfere with HCV functions from those that exert cytotoxic or cytostatic effects in the HCV replicon model, and as a consequence cause a decrease in HCV RNA or linked reporter enzyme concentration. Assays are known in the field for the evaluation of cellular cytotoxicity based for example on the activity of mitochondrial enzymes using fluorogenic redox dyes such as resazurin. Furthermore, cellular counter screens exist for the evaluation of non-selective inhibition of linked reporter gene activity, such as firefly luciferase. Appropriate cell types can be equipped by stable transfection with a luciferase reporter gene whose expression is dependent on a constitutively active gene promoter, and such cells can be used as a counter-screen to eliminate non-selective inhibitors.
The compounds of formula (I) were examined for activity in the inhibition of HCV RNA replication in a cellular assay. […] The cellular assay was based on a bicistronic expression construct, as described by Lohmann et al. (1999) Science vol. 285 pp. 110-113 with modifications described by Krieger et al. (2001) Journal of Virology 75: 4614-4624, in a multi-target screening strategy. In essence, the method was as follows.
The assay utilized the stably transfected cell line Huh-7 luc/neo (hereafter referred to as Huh-Luc). This cell line harbors an RNA encoding a bicistronic expression construct comprising the wild type NS3-NS5B regions of HCV type 1b translated from an Internal Ribosome Entry Site (IRES) from encephalomyocarditis virus (EMCV), preceded by a reporter portion (FfL-luciferase), and a selectable marker portion (neo^R, neomycine phosphotransferase). The construct is bordered by 5′ and 3′ NTRs (non-translated regions) from HCV type 1b. Continued culture of the replicon cells in the presence of G418 (neo^R) is dependent on the replication of the HCV RNA. The stably transfected replicon cells that express HCV RNA, which replicates autonomously and to high levels, encoding inter alia luciferase, are used for screening the antiviral compounds.
The replicon cells were plated in 384 well plates in the presence of the test and control compounds which were added in various concentrations. Following an incubation of three days, HCV replication was measured by assaying luciferase activity (using standard luciferase assay substrates and reagents and a Perkin Elmer ViewLux™ ultraHTS microplate imager). Replicon cells in the control cultures have high luciferase expression in the absence of any inhibitor. The inhibitory activity of the compound on luciferase activity was monitored on the Huh-Luc cells, enabling a dose-response curve for each test compound. EC50 values were then calculated, which value represents the amount of the compound required to decrease by 50% the level of detected luciferase activity, or more specifically, the ability of the genetically linked HCV replicon RNA to replicate.

[4] = target: full-length hepatitis C NS3 protease enzyme (HCV NS3/4A protease complexes) (Hepatitis C virus genotype 1a, UniProt P27958); experiment: Inhibition assay (enzymatic assay) of HCV NS3/4A protease; assay type: biochemical; conditions: enzyme 1 nM, 25 μM NS4A cofactor, 0.5 μM depsipeptide substrate, 30° C., competitive model
Chain of full-length hepatitis C NS3 protease enzyme (HCV NS3/4A protease complexes) (P27958 1027-1657, one chain of several): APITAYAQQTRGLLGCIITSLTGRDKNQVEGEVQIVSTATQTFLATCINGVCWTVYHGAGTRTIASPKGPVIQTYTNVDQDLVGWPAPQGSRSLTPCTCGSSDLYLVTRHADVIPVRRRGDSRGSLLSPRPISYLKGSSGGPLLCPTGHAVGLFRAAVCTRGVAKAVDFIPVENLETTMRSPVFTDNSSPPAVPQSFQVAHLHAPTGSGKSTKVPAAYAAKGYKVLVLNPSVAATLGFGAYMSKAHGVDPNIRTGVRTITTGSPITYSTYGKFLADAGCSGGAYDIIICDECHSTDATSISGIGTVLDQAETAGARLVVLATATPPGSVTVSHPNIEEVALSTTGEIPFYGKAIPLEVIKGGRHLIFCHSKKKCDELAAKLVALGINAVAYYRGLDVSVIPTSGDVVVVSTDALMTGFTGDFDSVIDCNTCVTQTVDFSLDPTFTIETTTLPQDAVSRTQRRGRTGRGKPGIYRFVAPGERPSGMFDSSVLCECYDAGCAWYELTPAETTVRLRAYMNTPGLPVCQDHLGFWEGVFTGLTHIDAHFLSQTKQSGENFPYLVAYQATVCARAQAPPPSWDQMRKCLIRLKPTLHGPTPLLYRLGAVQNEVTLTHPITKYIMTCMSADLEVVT
Protocol: The aim of this in vitro assay is to measure the inhibition of HCV NS3/4A protease complexes by the compounds of the present invention. This assay provides an indication of how effective compounds of the present invention would be in inhibiting HCV NS3/4A proteolytic activity.
The inhibition of full-length hepatitis C NS3 protease enzyme was measured essentially as described in Poliakov, 2002 Prot Expression & Purification 25 363 371. Briefly, the hydrolysis of a depsipeptide substrate, Ac-DED(Edans)EEAbuψ[COO]ASK(Dabcyl)-NH2 (AnaSpec, San José, USA), was measured spectrofluorometrically in the presence of a peptide cofactor, KKGSVVIVGRIVLSGK (Åke Engström, Department of Medical Biochemistry and Microbiology, Uppsala University, Sweden). [Landro, 1997 #Biochem 36 9340-9348]. The enzyme (1 nM) was incubated in 50 mM HEPES, pH 7.5, 10 mM DTT, 40% glycerol, 0.1% n-octyl-D-glucoside, with 25 μM NS4A cofactor and inhibitor at 30° C. for 10 min, whereupon the reaction was initiated by addition of 0.5 μM substrate. Inhibitors were dissolved in DMSO, sonicated for 30 sec. and vortexed. The solutions were stored at −20° C. between measurements.
The final concentration of DMSO in the assay sample was adjusted to 3.3%. The rate of hydrolysis was corrected for inner filter effects according to published procedures. [Liu, 1999 Analytical Biochemistry 267 331-335]. Ki values were estimated by non-linear regression analysis (GraFit, Erithacus Software, Staines, MX, UK), using a model for competitive inhibition and a fixed value for Km (0.15 μM). A minimum of two replicates was performed for all measurements.

[5] = 14-membered ring, Hoveyda-Grubbs I, with chain assembly

Compound	EC50 [3] [nM]	Ki [4] [nM]	other results
COc1ccc2c(OC3CC4C(=O)NC5(C(=O)O)CC5C=CCCCCN(C)C(=O)N4C3)nc(-c3ccc(F)cc3)nc2c1C (centres unmarked)			ring closure, isolated yield [1, 5]: 20%
CCOC(=O)C12CC1C=CCCCCN(C)C(=O)C1CC(Oc3nc(-c4ccc(OC)cc4)nc4c(C)c(OC)ccc34)CC1C(=O)N2 (centres unmarked)			ring closure, isolated yield ([1]; from C=CCCCCN(C)C(=O)C1CC(Oc2nc(-c3ccc(OC)cc3)nc3c(C)c(OC)ccc23)CC1C(=O)NC1(C(=O)OCC)CC1C=C, 14-membered ring, Hoveyda-Grubbs II, 1.71 mM, 16.0 h): 75%
CCOC(=O)C12CC1C=CCCCCCN(Cc1ccc(OC)cc1)C(=O)N1CC(OC(=O)c3ccc([N+](=O)[O-])cc3)CC1C(=O)N2 (centres unmarked)			ring closure, isolated yield ([1]; from C=CCCCCCN(Cc1ccc(OC)cc1)C(=O)N1CC(OC(=O)c2ccc([N+](=O)[O-])cc2)CC1C(=O)NC1(C(=O)OCC)CC1C=C, 15-membered ring, Hoveyda-Grubbs II (5 mol%), then LiOH, 0.74 mM, 2 steps): 61%
17-(7-Methoxy-2-phenyl-quinazolin-4-yloxy-13-methyl-2,14-dioxo-3,13-diazatricyclo[13.3.0.0*4,6*]octadec-7-ene-4-carboxylic acid ethyl ester			ring closure, isolated yield ([1]; 14-membered ring, Hoveyda-Grubbs I, 1.1 mM): 40%
CN1CCCCC=CC2CC2(C(=O)NS(=O)(=O)C2CC2)NC(=O)C2CC(Oc3nc(N4CCOCC4)nc4ccccc34)CC2C1=O (centres unmarked)			ring closure, yield after HPLC ([2]; from 4-(2-Morpholin-4-yl-quinazolin-4-yloxy)-cyclopentane-1,2-dicarboxylic acid 1-[(1-cyclopropanesulfonylaminocarbonyl-2-vinyl-cyclopropyl)-amide]2-(hex-5-enyl-methyl-amide), 1.63 mM, 150.0 °C): 56%
Cyclopropanesulfonic acid {17-[2-(4-isopropyl-thiazol-2-yl)-quinazolin-4-yloxy-]-13-methyl-2,14-dioxo-3,13-diaza-tricyclo[13.3.0.0*4,6*]octadec-7-ene-4-carbonyl}-amide			ring closure, yield after HPLC ([2]; 1.67 mM, 15.0 °C): 64%
17-[2-(4-Isopropyl-thiazol-2-yl)-7-methoxy-quinazolin-4-yloxy]-13-methyl-2,14-dioxo-3,13-diaza-tricyclo[13.3.0.0*4,6*]octadec-7-ene-4-carboylic acid ethyl ester			ring closure, isolated yield ([1]; 14-membered ring, Hoveyda-Grubbs II, 1.45 mM, 90.0 °C): 46%
CN1CCCCC=CC2CC2(C(=O)NS(=O)(=O)C2CC2)NC(=O)C2CC(Oc3nc(-c4ccccc4)nc4ccccc34)CC2C1=O (centres unmarked)			ring closure, yield after HPLC ([2]; from 4-(2-Phenyl-quinazolin-4-yloxy)-cyclopentane-1,2-dicarboxylic acid 1-[(1 cyclo-propanesulfonecarbonyl-2-vinylcyclopropyl)-amide]2-(hex-5-enylmethylamide), 1.72 mM, 150.0 °C): 29%
COc1ccc2c(OC3CC4C(=O)NC5(C(=O)O)CC5C=CCCCCN(C)C(=O)N4C3)ncnc2c1C (centres unmarked)			ring closure, isolated yield [1, 5]: 8%
COc1ccc2c(O[C@@H]3C[C@H]4C(=O)N[C@]5(C(=O)NS(=O)(=O)C6CC6)C[C@H]5/C=C\CCCCN(C)C(=O)[C@@H]4C3)nc(-c3nc(C(C)C)cs3)nc2c1 [Compound 45, Cyclopropanesulfonic acid {17-[2-(4-isopropyl-thiazol-2-yl)-7-methoxy-quinazolin-4-yloxy]-13-methyl-2,14-dioxo-3,13-diaza-tricyclo[13.3.0.0*4,6*]octadec-7-ene-4-carbonyl}-amide]	0.5 to 199	0.1 to 4.9	
CN1CCCC/C=C\[C@@H]2C[C@@]2(C(=O)NS(=O)(=O)C2CC2)NC(=O)[C@@H]2C[C@@H](Oc3nc(N4CCCC4)nc4ccccc34)C[C@H]2C1=O [Compound 72, Cyclopropanesulfonic acid [13-methyl-2,14-dioxo-17-[2-pyrrolidin-1-yl)-quinazolin-4-yloxy]-3,13-diaza-tricyclo[13.3.0.0*4,6*]octadec-7-ene-4-carbonyl]-amide]	200 to 990	0.1 to 4.9	
COc1ccc2c(O[C@@H]3C[C@H]4C(=O)N[C@]5(C(=O)NS(=O)(=O)C6(C)CC6)C[C@H]5/C=C\CCCCCNC(=O)N4C3)nc(-c3ccccc3)nc2c1C [Compound 176, 1-Methyl-cyclopropanesulfonic acid [18-(7-methoxy-8-methyl-2-phenyl-quinazolin-4-yloxy)-2,15-dioxo-3,14,16-triaza-tricyclo[14.3.0.0*4,6*]nonadec-7-ene-4-carboyl]-amide]	0.5 to 199	0.1 to 4.9	
CCOc1nc(O[C@@H]2C[C@H]3C(=O)N[C@]4(C(=O)NS(=O)(=O)C5CC5)C[C@H]4/C=C\CCCCN(C)C(=O)[C@@H]3C2)c2ccc(OC)c(C)c2n1 [Compound 150, N-[17-[2-Ethoxy-7-methoxy-8-methylquinazolin-4-yloxy]-13-methyl-2,14-dioxo-3,13-diazatricyclo[13.3.0.0^4,6]octadec-7-ene-4-carbonyl](cyclopropyl)sulfonamide]	0.5 to 199	0.1 to 4.9	
COc1ccc2c(O[C@H]3CC4C(=O)N(C)CCCC/C=C\[C@@H]5C[C@@]5(C(=O)NS(=O)(=O)C5CC5)NC(=O)[C@@H]4C3)nc(-c3ccc(F)cc3)nc2c1C (some centres unmarked) [Compound 154]	0.5 to 199	0.1 to 4.9	
COc1ccc2c(O[C@@H]3C[C@H]4C(=O)N[C@]5(C(=O)NS(=O)(=O)C6CC6)C[C@H]5/C=C\CCCCN(C)C(=O)[C@@H]4C3)nc(-c3ccccc3)nc2c1 [Compound 21, Cyclopropanesulfonic acid [17-(7-methoxy-2-phenyl-quinazolin-4-yloxy)-13-methyl-2,14-dioxo-3,13-diaza-tricyclo[13.3.0.0*4,6*]octadec-7-ene-4-carbonyl]-amide]	0.5 to 199	0.1 to 4.9	
CN1CCN(c2nc(OC3CC4C(=O)NC5(C(=O)NS(=O)(=O)C6CC6)CC5C=CCCCCN(C)C(=O)C4C3)c3ccccc3n2)CC1 (centres unmarked)			ring closure, yield after HPLC ([2]; from 4-[2-(4-Methyl-piperazin-1-yl)-quinazolin-4-yloxy]-cyclopentane-1,2-dicarboxylic acid 1-[(1-cyclopropanesulfonylaminocarbonyl-2-vinyl-cyclopropyl)amide]2-(hex-5-enyl-methyl-amide), 1.61 mM, 150.0 °C): 22%
CCOC(=O)C12CC1C=CCCCCN(C)C(=O)C1CC(Oc3nc(-c4cccc(F)c4)nc4c(C)c(OC)ccc34)CC1C(=O)N2 (centres unmarked)			ring closure, isolated yield ([1]; from C=CCCCCN(C)C(=O)C1CC(Oc2nc(-c3cccc(F)c3)nc3c(C)c(OC)ccc23)CC1C(=O)NC1(C(=O)OCC)CC1C=C, 14-membered ring, Hoveyda-Grubbs II, 1.49 mM, 16.0 h): 70%
